According to paper PMC4820820, “CETSA screening identifies known and novel thymidylate synthase inhibitors and slow intracellular activation of 5-fluorouracil” (Nature Communications, 2016):
Where two headings read alike, the source gives them in different places.

Tests used:
TS [1] = target: T1, TS (Homo sapiens, UniProt P04818); assay: Thermal shift in vitro assay on recombinant protein; assay type: binding; set-up: His6 tag with TEV site (vector-encoded by pNIC28-Bsa4); made in house; host or cells: Rosetta BL21-DE3 Escherichia coli
Procedure: The assay was performed on the iCycler iQ Real Time PCR Detection System (Bio-Rad), using the 96-well thin-wall PCR plate (Bio-Rad). The experiment was conducted in a buffer containing 20 mM HEPES at pH 7.5 and 150 mM NaCl. A total volume of 25 μl solution containing 0.2 mg ml^−1 protein, compounds and × 5 Sypro Orange dye (Invitrogen) diluted from 5,000 × stock was dispensed into the 96-well plate. The same amount of DMSO was added in the control wells. The plates were sealed with Microseal B adhesive sealer (Bio-Rad) and heated in iCycler from 25 to 80 °C (56 heating cycles in 28 min). Fluorescent filter used for Sypro Orange measurements was λexcitation=492 nm and λemission=610 nm. The calculation of the midpoint of the curves (Tm) was performed using the software package XLfit from IDBS within microsoft excel.
Decitabine at a concentration of 1 mM was incubated with 1 mg ml^−1 of recombinant DCK and 2.5 mM ATP in a buffer of 50 mM Tris at pH 7.5, 150 mM NaCl and 0.5 mM MgCl2 at room temperature for 60 min to generate the corresponding monophosphates. To probe for nucleotide deamination the samples were further treated with 1 mg ml^−1 of recombinant DCTD in the presence of 1 mM ATP and 10 μM ZnCl2 for 20 min at room temperature. After incubation, the samples were heated at 95 °C for 10 min and centrifuged for 10 min at the highest speed at 4 °C using a benchtop centrifuge. The supernatant was tested without dilution in thermal shift in vitro assays and the TS enzyme inhibition assay. The supernatants from samples without nucleoside were used as the treatment controls.
Target sequence in this assay (P04818 whole entry): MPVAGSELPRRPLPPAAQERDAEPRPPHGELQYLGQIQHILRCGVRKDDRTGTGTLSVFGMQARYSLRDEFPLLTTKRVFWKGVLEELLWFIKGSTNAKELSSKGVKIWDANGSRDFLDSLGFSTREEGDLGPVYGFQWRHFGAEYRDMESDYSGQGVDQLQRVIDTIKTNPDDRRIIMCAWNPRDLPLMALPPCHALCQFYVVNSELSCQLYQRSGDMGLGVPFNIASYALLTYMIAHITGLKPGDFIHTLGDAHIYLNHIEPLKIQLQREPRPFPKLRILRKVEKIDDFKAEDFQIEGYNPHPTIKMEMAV

TS [2] = target: T1, TS; assay: Western blot ITDRF CETSA of decitabine with or without DCK inhibitor DI-82, K562 cells; assay type: cell-based; set-up: screening in live, non-engineered cells expressing thymidylate synthase; endogenous in cells; host or cells: K562 (human myelogenous leukemia) cells
Procedure: K562 cells were treated with each respective compound concentrations and one vehicle as control in 100 μl aliquots in 0.2 ml tubes for 2 h in an incubator at 37 °C and 5% CO2. The cell aliquots were heated at 50 °C and analyzed with western blot following the procedure described above.
For the decitabine metabolism, decitabine was serially diluted to generate an 11 point dose–response curve and an […] experiment was performed as described above in absence and presence of 200 μM of the DCK inhibitor DI-82 (referred to as 12R in the main text of the original publication and DI-82 in the Supplementary Material)[34].
NuPage Novex Bis-Tris 4–12% polyacrylamide gels with NuPAGE MES SDS running buffer (Life Technologies) were used for separation of proteins in the samples. Proteins were transferred to nitrocellulose membranes using the iBlot2 blotting system (Life Technologies). Primary antibodies anti-TS (D5B3) XP (Cell Signaling), anti-dCK (sc-393099), anti-β-actin (sc-69879); secondary goat anti-mouse HRP-IgG (sc-2055) and bovine anti-rabbit HRP-IgG (sc-2374) antibodies (Santa Cruz Biotechnology, Santa Cruz, CA, USA) were used for immunoblotting. […] Chemiluminescence intensities were detected and quantified using a ChemiDoc XRS+ imaging system (Bio-Rad) with Image Lab software (Bio-Rad).
Target sequence in this assay (P04818 2-313 limits assumed): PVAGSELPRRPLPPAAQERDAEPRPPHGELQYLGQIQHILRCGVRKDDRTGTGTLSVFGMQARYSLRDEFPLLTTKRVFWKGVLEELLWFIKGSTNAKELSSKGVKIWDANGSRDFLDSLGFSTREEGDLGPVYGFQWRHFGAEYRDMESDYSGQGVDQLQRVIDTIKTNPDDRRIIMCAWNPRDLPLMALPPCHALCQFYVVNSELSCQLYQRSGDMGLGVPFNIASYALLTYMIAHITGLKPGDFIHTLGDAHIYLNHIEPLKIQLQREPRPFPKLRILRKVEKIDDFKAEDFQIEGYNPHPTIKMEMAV

K562 cells = assay: Cell viability assay (CellTiter-Glo); assay type: cell-based; conditions: Homo sapiens
Procedure: A concentration–response curve of CBK115334 was generated using the Bravo liquid handling system (serial dilution of a 50 mM stock solution was done in 100% DMSO). A total of 150 nl of the serially diluted solutions and controls (positive control 0.67 mM staurosporine and negative control DMSO) were transferred to a white 384-well assay plate (3570, Corning) by means of acoustic dispensing (Echo 550, Labcyte). A Multidrop reagent dispenser (Thermo Scientific) was used to dispense 30 μl of a K562 cell suspension at a density of 33 × 10^3 cells per ml in supplemented cell culture medium. The cells were incubated at 37 °C in the presence of 5% CO2 for 72 h before addition of 30 μl CellTiter-Glo Luminescent Cell Viability Assay reagent (Promega) using a Multidrop Combi reagent dispenser (Thermo Scientific). The plate was placed on a plate shaker for 15 min prior to detection of the luminescence signal in an Envision plate reader (PerkinElmer). The final highest concentration of CBK115334 in the incubation with cells was 250 μM and the final concentration of the positive control staurosporine was 3 μM. All samples contained 0.5% DMSO. The data were analyzed using microsoft excel and GraphPad Prism 6.

| IC50 (K562 cells; 72 hours incubation, read-out: IC50 cell viability) [µM] | IC50 (K562 cells; read-out: IC50 cell proliferation) [µM] | ΔTm at 25 µM (TS [1]; 25 μM compound, 500 μM dUMP, read-out: thermal shift of isolated recombinant human TS) [°C] | ΔTm at 100 µM (TS [1]; 100 μM compound, 500 μM dUMP, read-out: thermal shift of isolated recombinant human TS) [°C] | SMILES | stabilization of recombinant TS (TS [1]; 1 mM decitabine after treatment with recombinant DCK) | stabilization of recombinant TS in thermal shift assay (TS [1]; nucleoside without enzyme treatment) | ΔTm at 1000 µM (TS [1]; read-out: thermal shift of recombinant TS) [°C] | stabilization of TS (ITDRFCETSA) (TS [2]; in absence of DI-82, K562 cells) | ability to bind TS (ITDRFCETSA) (TS [2]; in presence of 200 μM DI-82, K562 cells) |
| --- | --- | --- | --- | --- | --- | --- | --- | --- | --- |
| – | – | – | – | Nc1ncn([C@H]2C[C@H](O)[C@@H](CO)O2)c(=O)n1 [decitabine, 5-Aza-deoxycytidine] | only a marginal stabilization | did not stabilize | ~10 | Dose-dependent stabilization | completely blunted |
| 88 ± 15 | < 100 | 2.6 | 5.2 | Cc1cc(O)nc2sc(C(=O)c3ccccc3)c(N)c12 [CBK115334, 3-amino-2-benzoyl-4-methylthieno(2,3-b)pyridin-6-ol] | – | – | – | – | – |
